Experimental data taken from paper PMC5768759 (2018).

How the values were obtained:
[1] = system: ht21 (DNA, G4) GGGTTAGGGTTAGGGTTAGGG; assay: fluorescent intercalator displacement; settings: 100 mM K+; 10 mM lithium cacodylate, pH 7.4; thiazole orange 0.5 μM displaced; DNA 0.25 μM; nearly 6-fold weaker than c-myc
[2] = system: ds26 (DNA, duplex) CAATCGGATCGAATTCGATCCGATTG; assay: fluorescent intercalator displacement; settings: 100 mM K+; 10 mM lithium cacodylate, pH 7.4; thiazole orange 0.75 μM displaced; DNA 0.25 μM; nearly 10-fold weaker than c-myc
[3] = system: c-myc (DNA, G4) TGAGGGTGGGTAGGGTGGGTAA; assay: fluorescent intercalator displacement; settings: 100 mM K+; 10 mM lithium cacodylate, pH 7.4; thiazole orange 0.5 μM displaced; DNA 0.25 μM
[4] = system: F-duplex-T (DNA, hairpin, Spacer18 (hexaethylene glycol) between 10 and 11) TATAGCTATATATAGCTATA; assay: FRET melting; settings: 5 mM K+, 50 mM Li+; 5 mM lithium cacodylate, pH 7.4; compound 0.2 μM, DNA 0.2 μM; no increment above error

DC50 [1] [nM]	DC50 [2] [nM]	DC50 [3] [nM]	binding [4]	Compound
1170	1840	200	no	NCCCCCCCCCN.[Cl-].[Cl-].[Pt+2].[Pt+2].c1ccc(-c2ccnc3c2ccc2c(-c4ccccc4)ccnc23)cc1.c1ccc(-c2ccnc3c2ccc2c(-c4ccccc4)ccnc23)cc1
–	–	–	no	NCCCCCCCN.[Cl-].[Cl-].[Pt+2].[Pt+2].c1ccc(-c2ccnc3c2ccc2c(-c4ccccc4)ccnc23)cc1.c1ccc(-c2ccnc3c2ccc2c(-c4ccccc4)ccnc23)cc1
–	–	–	no	NCCCCCCCCN.[Cl-].[Cl-].[Pt+2].[Pt+2].c1ccc(-c2ccnc3c2ccc2c(-c4ccccc4)ccnc23)cc1.c1ccc(-c2ccnc3c2ccc2c(-c4ccccc4)ccnc23)cc1
–	–	–	no	NCCCCCCCCCCN.[Cl-].[Cl-].[Pt+2].[Pt+2].c1ccc(-c2ccnc3c2ccc2c(-c4ccccc4)ccnc23)cc1.c1ccc(-c2ccnc3c2ccc2c(-c4ccccc4)ccnc23)cc1
